Assay results as given in patent EP2966448B1, “METHOD FOR THE PREDICTION OR PROGNOSIS OF THE RESPONSE OF A HUMAN SUBJECT SUFFERING FROM CANCER TO TREATMENT WITH AN ANTAGONIST OF THE NK1 RECEPTOR” (priority 2013, dated 2014).
Read-outs that look alike come from different tables or passages of the source.

Experiments:
[1] = tested on: Pancreatic carcinoma; assay: Inhibition of primary tumor cell cultures (48 hours) vs NK1 receptor immunostaining (Example 1); type: cell-based; details: Homo sapiens, 1 micromolar, read-out: Percentage of inhibition of cell cultures
Experimental: (§1) Cell cultures. To obtain tumor cells from human primary tumors we used the method described in De Bari et al. (De Bari et al. 2001). Briefly, small pieces of the tumors were digested into a hyaluronidase solution (Sigma-Aldrich, USA) at a concentration of 1 mg/ml during 15 minutes at 37°C, and then they were treated with 6 mg/ml of collagenase type IV (Invitrogen) during 2 hours at 37°C. Consecutively, cells were washed, and resuspended in the DMEM culture medium with high concentration of glucose (Dulbecco's Modified Eagle's Medium, Invitrogen) supplemented with 1% of antibiotics-antimycotics (Invitrogen) and with 1% of sodium pyruvate (Invitrogen), and the cells were seeded in culture slides at a concentration of 10.000 cells per square centimeter. When cells reached confluence, the adherent cells were separated using sterile trypsin at 0,5% (Invitrogen) and they were used among passages 3 and 9. For the assays shown next, tumor cells were seeded on slides at a concentration of 25.000 cells per well. A total of 6 wells containing the tumor cells were used as survival control. […] All the cultures were kept during 48 hours and later on recollected for their analysis.
(§2) Immunohistochemistry techniques. The presence of NK1 receptors was also analyzed using immunohistochemistry techniques. Briefly, a sample of each of the cultures of the cell lines used in the present invention, was centrifuged (5 minutes at 1.500 rpm) and the pellet obtained was dehydrated using increasing concentrations of ethanol and, finally, xylol. Then, said dehydrated samples were embedded in paraffin, creating a block of cells. Such paraffin blocks were cut with a microtome at 5 microns thickness, and were placed on microscope slides adequate to perform immunohistochemistry techniques. Consecutively, they were de-paraffinized by immersing them in xylol, to be finally hydrated using a solution containing decreasing concentrations of ethanol, and finally submerged them into water. […] After this, the samples were left to cool down at room temperature for 10 minutes. The endogenous peroxidase activity was blocked with 3% peroxide of hydrogen for 30 minutes at room temperature. After washing the samples with 0.05 M of Tris buffer, they were incubated with 10% non-immune pork serum at for 30 minutes at room temperature. To analyze the expression of NK1 receptors, the cellular samples were incubated in the presence of anti-NK1 antibodies (S8305, Sigma-Aldrich) diluted 1:1000, overnight at 4°C. Afterwards, the samples were washed in Tris buffer 0.05 M at room temperature. The next step was the addition of Envision System-HRP (Dako) reagents for 30 minutes at room temperature. Then, the samples were washed again in Tris buffer 0.05 M and the immunoreactivity was visualized through light microscopy with a chromogenic solution containing 3,3'-Diaminobenzidine (DAB+; Dako, USA). To differentiate the cell nuclei, they were slightly stained with hematoxylin. As negative control, it was used samples not incubated with the primary antibody anti-NK1, which was replaced by non-immune serum. All the samples were evaluated.
(§3) To value the immunostaining in each of the cases six cuts were performed to be analyzed by the immunohistochemistry technique. In each of the six cuts, it was counted cells in 20 fields (magnification 400x) using an Olympus microscope (model CX31). In each field it was counted the total number of cells and the number of cells presenting immunostaining, calculating afterwards the percentage of cells which presented immunostaining.

[2] = tested on: Renal cell carcinoma; assay: as above; type: cell-based; details: Homo sapiens, 1 micromolar, read-out: Percentage of inhibition of cell cultures
Experimental: as §1, §2, §3

[3] = tested on: Carcinoma of the uterine cervix; assay: as above; type: cell-based; details: Homo sapiens, 1 micromolar, read-out: Percentage of inhibition of cell cultures
Experimental: as §1, §2, §3

[4] = tested on: Lung carcinoma (non small cell type); assay: as above; type: cell-based; details: Homo sapiens, 1 micromolar, read-out: Percentage of inhibition of cell cultures
Experimental: as §1, §2, §3

[5] = tested on: Lung carcinoma (small cell type); assay: as above; type: cell-based; details: Homo sapiens, 1 micromolar, read-out: Percentage of inhibition of cell cultures
Experimental: as §1, §2, §3

[6] = tested on: Thyroid carcinoma (folliculary type); assay: as above; type: cell-based; details: Homo sapiens, 1 micromolar, read-out: Percentage of inhibition of cell cultures
Experimental: as §1, §2, §3

[7] = tested on: Glioma; assay: as above; type: cell-based; details: Homo sapiens, 1 micromolar, read-out: Percentage of inhibition of cell cultures
Experimental: as §1, §2, §3

[8] = tested on: Fibrosarcoma; assay: as above; type: cell-based; details: Homo sapiens, 1 micromolar, read-out: Percentage of inhibition of cell cultures
Experimental: as §1, §2, §3

[9] = tested on: Malignant Fibrous Histiocytoma; assay: as above; type: cell-based; details: Homo sapiens, 1 micromolar, read-out: Percentage of inhibition of cell cultures
Experimental: as §1, §2, §3

[10] = tested on: Ewing Sarcoma; assay: as above; type: cell-based; details: Homo sapiens, 1 micromolar, read-out: Percentage of inhibition of cell cultures
Experimental: as §1, §2, §3

[11] = tested on: Neuroblastoma; assay: as above; type: cell-based; details: Homo sapiens, 1 micromolar, read-out: Percentage of inhibition of cell cultures
Experimental: as §1, §2, §3

[12] = tested on: Leukemia B; assay: as above; type: cell-based; details: Homo sapiens, 1 micromolar, read-out: Percentage of inhibition of cell cultures
Experimental: as §1, §2, §3

[13] = tested on: Myeloma; assay: as above; type: cell-based; details: Homo sapiens, 1 micromolar, read-out: Percentage of inhibition of cell cultures
Experimental: as §1, §2, §3

[14] = tested on: Gastric carcinoma (Adenocarcinoma); assay: Inhibition of primary tumor cell cultures vs Kras mutation (Example 2); type: cell-based, human; details: Homo sapiens, Cases with Kras mutated; 100 micromolar; read-out: Percentage of inhibition of cell cultures
Experimental: (§4) Cell cultures. […] Briefly, small pieces of the tumors were digested into a hyaluronidase solution (Sigma-Aldrich, USA) at a concentration of 1 mg/ml during 15 minutes at 37°C, and then they were treated with 6 mg/ml of collagenase type IV (Invitrogen) during 2 hours at 37°C. Consecutively, cells were washed, and resuspended in the DMEM culture medium with high concentration of glucose (Dulbecco's Modified Eagle's Medium, Invitrogen) supplemented with 1% of antibiotics-antimycotics (Invitrogen) and with 1% of sodium pyruvate (Invitrogen), and the cells were seeded in culture slides at a concentration of 10.000 cells per square centimeter. When cells reached confluence, the adherent cells were separated using sterile trypsin at 0,5% (Invitrogen) and they were used among passages 3 and 9. For the assays shown next, tumor cells were seeded on slides at a concentration of 25.000 cells per well. A total of 6 wells containing the tumor cells were used as survival control. […] All the cultures were kept during 48 hours and later on recollected for their analysis.
(§5) In each case the presence or not of mutations in K-ras gene was determined.
(§6) To determine the existence of mutations in the K-ras gene DNA from cancer tumor cells was extracted from samples obtained from the different cancer tumor cells, using DNA extraction kits from Takara (Madison, WI, US) or Ambion (Huntingdon, Cambridgeshire, United Kingdom), following the manufacturer's instructions, and as it has been previously published (Di Fiore F, et al. 2007). Consecutively it was analyzed by sequencing the exon 2 of the KRAS gene, , by means of PCR amplification from previously extracted cancer tumor DNA, using the following sense primer (SEQ ID NO. 15): 5'-[sequence]-3' and anti-sense primer (SEQ ID NO. 16): 5'-[sequence]-3'. After the purification using the Qiagen extraction kit, the PCR products were sequenced using the Big Dye Terminator Kit V3.1 (Applied Biosystems, Foster City, CA, U.S.) and an ABI Prism 377 or 3100 DNA sequencer (Applied Biosystems). The presence of a heterozygous mutation in the KRAS gene in cancer tumor cells of the cultures was defined as the appearance of a mutant peak of a height of at least a third of the wild type. All the sequence analysis were executed at least twice in two independent PCR.
(§7) The antibody against NK1 receptor (Table 16) was used at 1/50 concentration. The percentages of inhibition are expressed in percentage of variation in relation to control ± standard deviation.

[15] = tested on: Pancreatic carcinoma (Adenocarcinoma); assay: as above; type: cell-based, human; details: Homo sapiens, Cases with Kras mutated; 100 micromolar; read-out: Percentage of inhibition of cell cultures
Experimental: as §4, §5, §6, §7

[16] = tested on: Lung carcinoma (small cell lung carcinoma); assay: as above; type: cell-based, human; details: Homo sapiens, Cases with Kras mutated; 100 micromolar; read-out: Percentage of inhibition of cell cultures
Experimental: (§8) To obtain tumor cells from human primary tumors we used the method described in De Bari et al. (De Bari et al. 2001). Briefly, small pieces of the tumors were digested into a hyaluronidase solution (Sigma-Aldrich, USA) at a concentration of 1 mg/ml during 15 minutes at 37°C, and then they were treated with 6 mg/ml of collagenase type IV (Invitrogen) during 2 hours at 37°C. Consecutively, cells were washed, and resuspended in the DMEM culture medium with high concentration of glucose (Dulbecco's Modified Eagle's Medium, Invitrogen) supplemented with 1% of antibiotics-antimycotics (Invitrogen) and with 1% of sodium pyruvate (Invitrogen), and the cells were seeded in culture slides at a concentration of 10.000 cells per square centimeter. When cells reached confluence, the adherent cells were separated using sterile trypsin at 0,5% (Invitrogen) and they were used among passages 3 and 9. For the assays shown next, tumor cells were seeded on slides at a concentration of 25.000 cells per well. A total of 6 wells containing the tumor cells were used as survival control. […] All the cultures were kept during 48 hours and later on recollected for their analysis.
as §5, §6, §7

[17] = tested on: Thyroid carcinoma (papillary carcinoma); assay: as above; type: cell-based, human; details: Homo sapiens, Cases with Kras mutated; 100 micromolar; read-out: Percentage of inhibition of cell cultures
Experimental: as §8, §5, §6, §7

[18] = tested on: Urinary bladder carcinoma (transitional cell carcinoma); assay: as above; type: cell-based, human; details: Homo sapiens, Cases with Kras mutated; 100 micromolar; read-out: Percentage of inhibition of cell cultures
Experimental: as §8, §5, §6, §7

[19] = tested on: Non Hodgkin Lymphoma B (diffuse B cell lymphoma); assay: as above; type: cell-based, human; details: Homo sapiens, B-cell, Cases with Kras mutated; 100 micromolar; read-out: Percentage of inhibition of cell cultures
Experimental: as §1, §5, §6
(§9) The percentages of inhibition are expressed in percentage of variation in relation to control ± standard deviation.

[20] = tested on: Non Hodgkin Lymphoma T (diffuse T cell lymphoma); assay: as above; type: cell-based, human; details: Homo sapiens, T-cell, Cases with Kras mutated; 100 micromolar; read-out: Percentage of inhibition of cell cultures
Experimental: as §1, §5, §6, §9

[21] = tested on: human primary tumor cells; assay: Inhibition of primary tumor cell cultures vs low or high expression of the truncated form of NK1 receptor (Example 5; tumor type per table line); type: cell-based; details: 100 micromolar
Experimental: as §1
The presence of the truncated form of NK1 receptor was determined and then cells were cultured in presence of several antagonists of the NK1 receptor.
In each case the presence of the truncated form of the NK1 receptor was determined.
To determine the presence of the truncated form of the gene of NK1 receptor PCR technique was performed (Polymerase Chain Reaction). The extraction of RNA, amplifications of PCR, cycle conditions and quantitative analysis were executed as it has been previously described. The specific primers were the following: For the full-length NK1R receptor (NM_001058.3; forward (SEQ ID NO: 17)-: 5'-[sequence]-3 ' and reverse- (SEQ ID NO:18): 5'-[sequence]-3') and for the truncated NK1receptor (NM_015727.2; forward (SEQ ID NO: 19): 5'-[sequence]-3 and reverse (SEQ ID NO;20): 5'-[sequence]-3').
Cases were distributed in two groups: • Group A -low expression of the truncated form of NK1 receptor- for those cases wherein the expression of the truncated form of NK1 receptor was less than double the expression of the full length form of such receptor. • Group B -high expression of the truncated form of NK1 receptor- for those cases wherein the expression of the truncated form of the NK1 receptor was higher than double the expression of the full length form of such receptor.
The percentages of inhibition are expressed in percentage of variation in relation to the control ± standard deviation.

[22] = tested on: Endometrium carcinoma; assay: cells; details: Homo sapiens, 1 micromolar
Experimental: as §1, §2, §3

[23] = tested on: Prostate carcinoma; assay: cells; details: Homo sapiens, 1 micromolar
Experimental: as §1, §2, §3

[24] = NK1 receptor immunostaining Group 1 (less than 20% of the cells)
[25] = NK1 receptor immunostaining Group 2 (20-80% of the cells)
[26] = NK1 receptor immunostaining Group 3 (more than 80% of the cells)
[27] = NK1 receptor immunostaining Intensity grade 1
[28] = NK1 receptor immunostaining Intensity grade 2
[29] = NK1 receptor immunostaining Intensity grade 3
[30] = read-out: Percentage of inhibition of cell cultures, NK1 receptor immunostaining Group 1 (less than 20% of the cells)
[31] = read-out: Percentage of inhibition of cell cultures, NK1 receptor immunostaining Group 2 (20-80% of the cells)
[32] = read-out: Percentage of inhibition of cell cultures, NK1 receptor immunostaining Group 3 (more than 80% of the cells)
[33] = read-out: Percentage of inhibition of cell cultures, NK1 receptor immunostaining Intensity grade 1
[34] = read-out: Percentage of inhibition of cell cultures, NK1 receptor immunostaining Intensity grade 2

C[C@@H](O[C@H]1OCCN(Cc2n[nH]c(=O)[nH]2)[C@H]1c1ccc(F)cc1)c1cc(C(F)(F)F)cc(C(F)(F)F)c1 [Aprepitant]
inhibition at 1 µM [1, 24]: 12 ± 3%
inhibition at 1 µM [1, 25]: 47 ± 1%
inhibition at 1 µM [1, 26]: 94 ± 6%
inhibition at 1 µM [1, 27]: 27 ± 7%
inhibition at 1 µM [1, 28]: 56 ± 5%
inhibition at 1 µM [1, 29]: 94 ± 3%
inhibition at 1 µM [2, 24]: 10 ± 3%
inhibition at 1 µM [2, 25]: 45 ± 4%
inhibition at 1 µM [2, 26]: 93 ± 6%
inhibition at 1 µM [2, 27]: 27 ± 6%
inhibition at 1 µM [2, 28]: 57 ± 6%
inhibition at 1 µM [2, 29]: 95 ± 6%
inhibition at 1 µM [3, 24]: 10 ± 2%
inhibition at 1 µM [3, 25]: 48 ± 5%
inhibition at 1 µM [3, 26]: 95 ± 5%
inhibition at 1 µM [3, 27]: 27 ± 4%
inhibition at 1 µM [3, 28]: 56 ± 4%
inhibition at 1 µM [3, 29]: 95 ± 4%
inhibition at 1 µM [4, 24]: 9 ± 3%
inhibition at 1 µM [4, 25]: 41 ± 3%
inhibition at 1 µM [4, 26]: 94 ± 7%
inhibition at 1 µM [4, 27]: 28 ± 5%
inhibition at 1 µM [4, 28]: 57 ± 5%
inhibition at 1 µM [4, 29]: 95 ± 3%
inhibition at 1 µM [5, 24]: 10 ± 2%
inhibition at 1 µM [5, 25]: 42 ± 3%
inhibition at 1 µM [5, 26]: 97 ± 6%
inhibition at 1 µM [5, 27]: 29 ± 6%
inhibition at 1 µM [5, 28]: 56 ± 6%
inhibition at 1 µM [5, 29]: 96 ± 4%
inhibition at 1 µM [6, 24]: 10 ± 2%
inhibition at 1 µM [6, 25]: 45 ± 2%
inhibition at 1 µM [6, 26]: 97 ± 5%
inhibition at 1 µM [6, 27]: 26 ± 6%
inhibition at 1 µM [6, 28]: 57 ± 5%
inhibition at 1 µM [6, 29]: 95 ± 5%
inhibition at 1 µM [7, 24]: 11 ± 4%
inhibition at 1 µM [7, 25]: 47 ± 4%
inhibition at 1 µM [7, 26]: 94 ± 6%
inhibition at 1 µM [7, 27]: 28 ± 7%
inhibition at 1 µM [7, 28]: 55 ± 6%
inhibition at 1 µM [7, 29]: 97 ± 4%
inhibition at 1 µM [8, 24]: 10 ± 3%
inhibition at 1 µM [8, 25]: 48 ± 3%
inhibition at 1 µM [8, 26]: 96 ± 5%
inhibition at 1 µM [8, 27]: 27 ± 6%
inhibition at 1 µM [8, 28]: 54 ± 5%
inhibition at 1 µM [8, 29]: 95 ± 5%
inhibition at 1 µM [9, 24]: 11 ± 2%
inhibition at 1 µM [9, 25]: 47 ± 2%
inhibition at 1 µM [9, 26]: 95 ± 6%
inhibition at 1 µM [9, 27]: 28 ± 7%
inhibition at 1 µM [9, 28]: 56 ± 5%
inhibition at 1 µM [9, 29]: 94 ± 3%
inhibition at 1 µM [10, 24]: 11 ± 2%
inhibition at 1 µM [10, 25]: 48 ± 6%
inhibition at 1 µM [10, 26]: 94 ± 6%
inhibition at 1 µM [10, 27]: 27 ± 6%
inhibition at 1 µM [10, 28]: 57 ± 4%
inhibition at 1 µM [10, 29]: 95 ± 6%
inhibition at 1 µM [11, 24]: 10 ± 3%
inhibition at 1 µM [11, 25]: 44 ± 5%
inhibition at 1 µM [11, 26]: 97 ± 5%
inhibition at 1 µM [11, 27]: 27 ± 6%
inhibition at 1 µM [11, 28]: 57 ± 6%
inhibition at 1 µM [11, 29]: 97 ± 5%
inhibition at 1 µM [12, 24]: 11 ± 2%
inhibition at 1 µM [12, 25]: 43 ± 4%
inhibition at 1 µM [12, 26]: 95 ± 4%
inhibition at 1 µM [12, 27]: 28 ± 5%
inhibition at 1 µM [12, 28]: 54 ± 5%
inhibition at 1 µM [12, 29]: 95 ± 6%
inhibition at 1 µM [13, 24]: 11 ± 2%
inhibition at 1 µM [13, 25]: 46 ± 5%
inhibition at 1 µM [13, 26]: 95 ± 4%
inhibition at 1 µM [13, 27]: 28 ± 5%
inhibition at 1 µM [13, 28]: 55 ± 3%
inhibition at 1 µM [13, 29]: 92 ± 5%
inhibition at 100 µM [14]: 24 ± 3%
inhibition at 100 µM [15]: 22 ± 4%
inhibition at 100 µM [16]: 22 ± 4%
inhibition at 100 µM [17]: 25 ± 4%
inhibition at 100 µM [18]: 26 ± 5%
inhibition at 100 µM [19]: 27 ± 5%
inhibition at 100 µM [20]: 25 ± 4%
Percentage of inhibition of cell cultures ([21]; Non Hodgkin Lymphoma B (diffuse B cell lymphoma), Cases with low expression of the truncated form of NK1 receptor (Group A)): 23±4 percentage
Percentage of inhibition of cell cultures ([21]; Non Hodgkin Lymphoma T (diffuse T cell lymphoma), Cases with high expression of the truncated form of NK1 receptor (Group B)): 98±6 percentage
Percentage of inhibition of cell cultures ([21]; Ovarian carcinoma (Adenocarcinoma), Cases with low expression of the truncated form of NK1 receptor (Group A)): 29±3 percentage
inhibition at 1 µM [22, 30]: 12 ± 2%
inhibition at 1 µM [22, 31]: 49 ± 2%
inhibition at 1 µM [22, 32]: 95 ± 4%
inhibition at 1 µM [22, 33]: 25 ± 7%
inhibition at 1 µM [22, 34]: 59 ± 5%
inhibition at 1 µM [23, 30]: 11 ± 3%
inhibition at 1 µM [23, 31]: 46 ± 6%
inhibition at 1 µM [23, 32]: 95 ± 5%
inhibition at 1 µM [23, 33]: 27 ± 5%
inhibition at 1 µM [23, 34]: 58 ± 6%
inhibition at 1 µM ([23]; read-out: Percentage of inhibition of cell cultures, NK1 receptor immunostaining Intensity grade 3): 93 ± 7%
